Measured values taken from patent US4018801A, “Substituted oxirane compounds” (The Dow Chemical Company, priority 1975, dated 1977).

Key:
Format in all cases: in vivo
Barnyard Grass = assay: Pre-emergent control of seed germination, soil drench; settings: barnyard grass
Description: (§1) Four parts by weight of the compound, 0.08 part of sorbitan trioleate (Span 85), and 0.02 part of a sorbitan monooleate polyoxyethylene derivative (Tween 80) are dipersed in 40 milliliters of acetone to produce a concentrate composition in the form of a water-dispersible liquid containing the predetermined oxirane compound as the sole active agent.
(§2) A portion of each of these concentrate compositions were separately dispersed in portions of water to provide aqueous compositions, containing 0.44 pound of the oxirane compound per 100 gallons of ultimate aqueous mixture.
(§3) The aqueous compositions were then employed for the treatment of seed beds of good agricultural soil which had been prepared and seeded with the seeds of various grass species and broadleaf plants. The grass species included white winter wheat, cultured rice, pigweeds, crabgrass, cheat grass, wild oats, Johnson grass, barnyard grass and yellow foxtail; and the broadleaf plants included corn. In the treating operations, a predetermined quantity of each of the compositions was applied to separate seedbeds as a soil drench at a rate of about 0.43 acre inch of aqueous composition per acre. The quantities were controlled to supply a substantial uniform dosage in a seedbed equivalent to 1.0, 2.0 and 5.0 pounds of the oxirane compound per acre. These dosages correspond, respectively, to a concentration, within the soil depth penetrated of about 1.6, 3.2 and 8.0 parts by weight of the oxirane compound per million parts by weight of soil. Other seedbeds were similarly seeded with the named plant species but were left untreated to serve as checks.
(§4) After about 2 weeks the seedbeds were examined to ascertain what control of the growth of seeds had been obtained.
(§5) were prepared as in Example 32 and similarly employed for the pre-emergencetreatment of various plant species.
(§6) An aqueous composition containing 2-(α,α,α -trifluoro-m-tolyl)-2-(2,2,2-trichloroethyl)oxirane was prepared as described in Example 32. The composition was then employed according to the procedures of Example 32 except that lower concentrations of the oxirane compound were employed in the composition.
(§7) The percent control of the various plant species at the employed dosage rate of the 2-(α,α,α-trifluoro-m-tolyl)- 2-(2,2,2-trichloroethyl) supplied by the composition is set forth in the following Table IV.

Wild Oats = assay: as above; settings: wild oats
Description: as §1, §2, §3, §4, §5, §6, §7

Yellow Foxtail = assay: as above; settings: yellow foxtail
Description: as §1, §2, §3, §4, §5, §6, §7

Crabgrass = assay: as above; settings: for pre-emergence control: crabgrass; for % Control: pre-emergence, Crab Grass
Description: as §1, §2, §3, §4, §5
(§8) Separate aqueous compositions containing the 2-(m-chlorophenyl)-2-(2,2,2-trichloroethyl)oxirane (Cmpd. A) and 2-(m-bromophenyl)-2-(2,2,2-trichloroethyl)oxirane (Cmpd. C) compounds of the present invention were prepared as in Example 32 for comparative per-emergence herbicide tests against noxious grass species with the known 2 -(p-chlorophenyl)-2-(2,2,2-trichloroethyl)oxirane (Cmpd. B) compound and 2-(p-bromophenyl)-2-(2,2,2-trichloroethyl)oxirane (Cmpd. D). The pre-emergence tests were conducted in Example 32 and the results of such tests are set forth below in Table III.
as §6, §7

Johnson Grass = assay: as above; settings: for pre-emergence control: Johnson grass; for % Control: pre-emergence, Johnson Grass
Description: as §1, §2, §3, §4, §5, §8, §6, §7

Water-Grass = assay: Comparative pre-emergence herbicide test
Description: as §1, §2, §3, §4, §8

Pigweeds = assay: Pre-emergent control of seed germination, soil drench; settings: pigweeds, 2.0 pounds per acre
Description: as §1, §2, §3, §4, §5, §6, §7

[1] = 0.25 to 0.5 pounds per acre, respectively

Compound | % Control (Crabgrass; 1/8 Lb/Acre) [%] | % Control (Crabgrass; 1/16 Lb/Acre) [%] | % Control (Johnson Grass; 1/8 Lb/Acre) [%] | % Control (Johnson Grass; 1/16 Lb/Acre) [%] | % Control (Water-Grass; 1/8 Lb/Acre) [%] | % Control (Water-Grass; 1/16 Lb/Acre) [%] | pre-emergence control (Barnyard Grass; 2.0 pounds per acre) | pre-emergence control (Pigweeds) | pre-emergence control (Wild Oats; 2.0 pounds per acre) | pre-emergence control (Crabgrass; 2.0 pounds per acre) | pre-emergence control (Johnson Grass; 2.0 pounds per acre) | also measured
Clc1cccc(C2(CC(Cl)(Cl)Cl)CO2)c1 (stereo not shown) [Example 7, 2-(m-chlorophenyl)-2-(2,2,2-trichloroethyl)oxirane] | 100 | 100 | 100 | 100 | 90 | 85 |  |  |  |  |  | pre-emergence control (Barnyard Grass; [1]): Substantially complete pre-emergence control; pre-emergence control (Wild Oats; [1]): Substantially complete pre-emergence control; pre-emergence control (Yellow Foxtail; [1]): Substantially complete pre-emergence control; pre-emergence control (Crabgrass; [1]): Substantially complete pre-emergence control; pre-emergence control (Johnson Grass; [1]): Substantially complete pre-emergence control
Cc1cccc(C2(CC(Cl)(Cl)Cl)CO2)c1 (stereo not shown) [Example 9, 2-(m-tolyl)-2-(2,2,2-trichloroethyl)oxirane] |  |  |  |  |  |  | substantially complete control | substantially complete control | substantially complete control | substantially complete control | substantially complete control | pre-emergence control (Yellow Foxtail; 2.0 pounds per acre): substantially complete control
Clc1ccc(C2(CC(Cl)(Cl)Cl)CO2)cc1 (stereo not shown) [Cmpd. B, 2-(p-chlorophenyl)-2-(2,2,2-trichloroethyl)oxirane, reference compound] | 20 | 0 | 30 | 0 | 90 | 60 |  |  |  |  |  | 
COc1cccc(C2(CC(Cl)(Cl)Cl)CO2)c1 (stereo not shown) [Example 12, 2-(m-methoxyphenyl)-2-(2,2,2-trichloroethyl)oxirane] |  |  |  |  |  |  | substantially complete pre-emergence control | substantially complete pre-emergence control |  | substantially complete pre-emergence control | substantially complete pre-emergence control | 
Fc1cccc(C2(CC(Cl)(Cl)Cl)CO2)c1 (stereo not shown) [Example 19, 2-(m-fluorophenyl)-2-(2,2,2-trichloroethyl)oxirane] |  |  |  |  |  |  |  |  |  |  |  | pre-emergence control (Barnyard Grass; [1]): Substantially complete pre-emergence control; pre-emergence control (Wild Oats; [1]): Substantially complete pre-emergence control; pre-emergence control (Yellow Foxtail; [1]): Substantially complete pre-emergence control; pre-emergence control (Crabgrass; [1]): Substantially complete pre-emergence control; pre-emergence control (Johnson Grass; [1]): Substantially complete pre-emergence control
ClC(Cl)(Cl)CC1(c2ccc(Br)cc2)CO1 (stereo not shown) [Cmpd. D, 2-(p-bromophenyl)-2-(2,2,2-trichloroethyl)oxirane, reference compound] | 0 | 0 | 25 | 0 | 60 | 30 |  |  |  |  |  | 
Clc1ccc(C2(CC(Cl)(Cl)Cl)CO2)cc1Cl (stereo not shown) [Example 5, 2-(3,4-dichlorophenyl)-2-(2,2,2-trichloroethyl)oxirane] |  |  |  |  |  |  |  | substantially complete control | substantially complete control | substantially complete control | substantially complete control | 
CCOc1cccc(C2(CC(Cl)(Cl)Cl)CO2)c1 (stereo not shown) [Example 14, 2-(m-ethoxyphenyl)-2-(2,2,2-trichloroethyl)oxirane] |  |  |  |  |  |  | substantially complete control |  | substantially complete control | substantially complete control | substantially complete control | 
